# Laboratory results as given in patent US12655387B2, “Hair follicle primordia and method for producing same” (National University Corporation Yokohama National University, priority 2019, dated 2026).
# System: epithelial cells and mesenchymal cells (hair follicle germ)
# Assay: co-culture of epithelial cells and mesenchymal cells in culture solution with dispersed additive; formation of hair shaft-like structure in hair follicle germ
# Format: cell-based, C57BL/6 mouse
# Settings: for formation of hair follicle germ having a hair shaft-like structure: up to day 8 of culture
# Description: A dorsal skin tissue was collected from a C57BL/6 mouse embryo at embryonic day 18, and was subjected to dispase treatment by a partially modified version of a method reported by […]. (Koh-ei Toyoshima et al. Nature Communications, 3, 784, 2012) at 4° C. under the shaking condition of 30 rpm for 1 hour to separate the epithelial layer and mesenchymal layer of the skin tissue. After that, the epithelial layer was treated with 100 U/mL collagenase for 1 hour and 20 minutes and further treated with trypsin for 10 minutes to isolate epithelial cells. In addition, the mesenchymal layer was treated with 100 U/mL collagenase for 1 hour and 20 minutes to isolate mesenchymal cells.
# In example 1-1, the epithelial cells and the mesenchymal cells were co-cultured using a culture solution containing laminin, entactin, and type IV collagen. First, DMEM/F12 medium (Advanced Dulbecco's Modified Eagle Medi um/Ham's F-12, GIBCO® containing 1% GLUTAMAX® Supplement (L-glutamine supplement in […], GIBCO® and 0.2% NORMOCIN® (antimicrobial agent, INVIVOGEN®) was prepared as the culture solution.
# Then, the epithelial cells and the mesenchymal cells in such amounts as to achieve a cell density of 5×10^3 cells/mL each (such amounts as to achieve a total cell density of 1×10^4 cells/mL) were suspended in the culture solution, and MATRIGEL® (MATRIGEL® Basement Membrane Matrix, CORNING®) in such an amount as to achieve a concentration of 1 v/v % was further added to prepare a cell suspension.
# The Matrigel product used contained 10.6 mg/mL (protein amount measured by the Lowry method) of a soluble basement membrane matrix extracted from an Engelbreth-Holm-Swarm (EHS) mouse tumor, and a compositional ratio in the basement membrane matrix was as follows: 56% of laminin, 8% of entactin, and 31% of type IV collagen.
# 100 μL of the cell suspension was placed in each well of a 96-well plate (Prime surface (trademark), Sumitomo Bakelite Co., Ltd.) to inoculate the epithelial cells and the mesenchymal cells. […]
substance,measurement,setting,value
laminin,formation of hair shaft-like structure in hair follicle germ,"1 v/v % of product at inoculation, day 8 of culture (examples 5-1, 5-2, 5-3, 6)",had no hair shaft-like structure formed therein
same,formation of hair follicle germ having a hair shaft-like structure,example C1-1: 5 v/v % of product (39 to 41 μg/mL laminin),a hair follicle germ having a hair shaft-like structure was not formed
same,formation of hair follicle germ having a hair shaft-like structure,example C1-2: 10 v/v % of product (78 to 82 μg/mL laminin),a hair follicle germ having a hair shaft-like structure was not formed
